# Test results as given in patent US11812767B2, “Beverage having Reb D and Reb M” (SUNTORY HOLDINGS LIMITED, priority 2018, dated 2023).
# Tests used:
# [1] = cited from earlier work
# [2] = Degradation of Reb D and Reb M in phosphate buffer at 40° C. for 8 weeks, analysed by HPLC; type: physicochemical; conditions: for % Reb M degradation 2 weeks: 2 weeks at 40° C.; for % Reb M degradation 4 weeks: 4 weeks at 40° C.; for % Reb M degradation 6 weeks: 6 weeks at 40° C.; for % Reb M degradation 8 weeks: 8 weeks at 40° C.
# Description: A study was carried out as follows, samples were prepared comprising 50 ppm, 150 ppm, 250 ppm and 400 ppm, of Reb D and samples with the following ratios of Reb D:Reb M 1:4, 1:1, 4:1 wherein the total concentration of the sample was 400 ppm. The samples were prepared in phosphate buffer and the pH was adjusted using phosphoric acid. Samples were prepared at the following pH; 2.0, 2.5, 3.0 and 3.5. These samples were incubated at 40° C. for 8 weeks. This incubation protocol should mimic the degradation at room temperature over 6 months. The amount of Reb D and Reb M in each sample at T=0 was calculated by HPLC this was then used to calculate the amount of remaining Reb M in each sample at each specified time point. Aliquots were taken at 2, 4, 6 and 8 weeks and analysed by HPLC to determine the degradation of Reb D and combinations of Reb D and Reb M over the 8 week study.
# [3] = pH 2, Reb D 0.008 % w/w + Reb M 0.032 % w/w
# [4] = pH 2, Reb D 0.02 % w/w + Reb M 0.02 % w/w
# [5] = pH 2, Reb D 0.032 % w/w + Reb M 0.008 % w/w
# [6] = pH 2.5, Reb D 0.008 % w/w + Reb M 0.032 % w/w
# [7] = pH 2.5, Reb D 0.02 % w/w + Reb M 0.02 % w/w
# [8] = pH 2.5, Reb D 0.032 % w/w + Reb M 0.008 % w/w
# [9] = pH 3, Reb D 0.008 % w/w + Reb M 0.032 % w/w
# [10] = pH 3, Reb D 0.02 % w/w + Reb M 0.02 % w/w
# [11] = pH 3, Reb D 0.032 % w/w + Reb M 0.008 % w/w
# [12] = pH 3.5, Reb D 0.008 % w/w + Reb M 0.032 % w/w
# [13] = pH 3.5, Reb D 0.02 % w/w + Reb M 0.02 % w/w
# [14] = pH 3.5, Reb D 0.032 % w/w + Reb M 0.008 % w/w
compound,measurement,setting,value
"C=C1C[C@@]23CC[C@H]4[C@@](C)(CCC[C@@]4(C)C(=O)O[C@@H]4O[C@H](CO)[C@@H](O)[C@H](O[C@@H]5O[C@H](CO)[C@@H](O)[C@H](O)[C@H]5O)[C@H]4O[C@@H]4O[C@H](CO)[C@@H](O)[C@H](O)[C@H]4O)[C@@H]2CC[C@]1(O[C@@H]1O[C@H](CO)[C@@H](O)[C@H](O[C@@H]2O[C@H](CO)[C@@H](O)[C@H](O)[C@H]2O)[C@H]1O[C@@H]1O[C@H](CO)[C@@H](O)[C@H](O)[C@H]1O)C3 [Reb M, rebaudioside M]",Sweetness potency (relative to sucrose),[1],200-250
same,% Reb M degradation 2 weeks,[2]; [3],28%
same,% Reb M degradation 4 weeks,[2]; [3],55%
same,% Reb M degradation 6 weeks,[2]; [3],71%
same,% Reb M degradation 8 weeks,[2]; [3],80%
same,% Reb M degradation 2 weeks,[2]; [4],25%
same,% Reb M degradation 4 weeks,[2]; [4],56%
same,% Reb M degradation 6 weeks,[2]; [4],69%
same,% Reb M degradation 8 weeks,[2]; [4],78%
same,% Reb M degradation 2 weeks,[2]; [5],35%
same,% Reb M degradation 4 weeks,[2]; [5],59%
same,% Reb M degradation 6 weeks,[2]; [5],72%
same,% Reb M degradation 8 weeks,[2]; [5],80%
same,% Reb M degradation 2 weeks,[2]; [6],3%
same,% Reb M degradation 4 weeks,[2]; [6],22%
same,% Reb M degradation 6 weeks,[2]; [6],31%
same,% Reb M degradation 8 weeks,[2]; [6],38%
same,% Reb M degradation 2 weeks,[2]; [7],6%
same,% Reb M degradation 4 weeks,[2]; [7],20%
same,% Reb M degradation 6 weeks,[2]; [7],29%
same,% Reb M degradation 8 weeks,[2]; [7],38%
same,% Reb M degradation 2 weeks,[2]; [8],4%
same,% Reb M degradation 4 weeks,[2]; [8],18%
same,% Reb M degradation 6 weeks,[2]; [8],28%
same,% Reb M degradation 8 weeks,[2]; [8],38%
same,% Reb M degradation 2 weeks,[2]; [9],0%
same,% Reb M degradation 4 weeks,[2]; [9],11%
same,% Reb M degradation 6 weeks,[2]; [9],15%
same,% Reb M degradation 8 weeks,[2]; [9],17%
same,% Reb M degradation 2 weeks,[2]; [10],0%
same,% Reb M degradation 4 weeks,[2]; [10],10%
same,% Reb M degradation 6 weeks,[2]; [10],14%
same,% Reb M degradation 8 weeks,[2]; [10],17%
same,% Reb M degradation 2 weeks,[2]; [11],0%
same,% Reb M degradation 4 weeks,[2]; [11],7%
same,% Reb M degradation 6 weeks,[2]; [11],12%
same,% Reb M degradation 8 weeks,[2]; [11],15%
same,% Reb M degradation 2 weeks,[2]; [12],0%
same,% Reb M degradation 4 weeks,[2]; [12],4%
same,% Reb M degradation 6 weeks,[2]; [12],4%
same,% Reb M degradation 8 weeks,[2]; [12],6%
same,% Reb M degradation 2 weeks,[2]; [13],0%
same,% Reb M degradation 4 weeks,[2]; [13],3%
same,% Reb M degradation 6 weeks,[2]; [13],4%
same,% Reb M degradation 8 weeks,[2]; [13],7%
same,% Reb M degradation 2 weeks,[2]; [14],0%
same,% Reb M degradation 4 weeks,[2]; [14],0%
same,% Reb M degradation 6 weeks,[2]; [14],2%
same,% Reb M degradation 8 weeks,[2]; [14],5%
C=C1C[C@@]23CC[C@H]4[C@@](C)(CCC[C@@]4(C)C(=O)O[C@@H]4O[C@H](CO)[C@@H](O)[C@H](O)[C@H]4O)[C@@H]2CC[C@]1(O[C@@H]1O[C@H](CO)[C@@H](O)[C@H](O)[C@H]1O)C3 [Rubusoside],Sweetness potency (relative to sucrose),[1],114
C=C1C[C@@]23CC[C@H]4[C@@](C)(CCC[C@@]4(C)C(=O)O[C@@H]4O[C@H](CO)[C@@H](O)[C@H](O)[C@H]4O)[C@@H]2CC[C@]1(O[C@@H]1O[C@H](CO)[C@@H](O)[C@H](O)[C@H]1O[C@@H]1O[C@H](CO)[C@@H](O)[C@H](O)[C@H]1O)C3 [Stevioside],Sweetness potency (relative to sucrose),[1],150-250
Rebaudioside B,Sweetness potency (relative to sucrose),[1],150
Rebaudioside C,Sweetness potency (relative to sucrose),[1],30
C=C1C[C@@]23CC[C@H]4[C@@](C)(CCC[C@@]4(C)C(=O)O[C@@H]4O[C@H](CO)[C@@H](O)[C@H](O)[C@H]4O[C@@H]4O[C@H](CO)[C@@H](O)[C@H](O)[C@H]4O)[C@@H]2CC[C@]1(O[C@@H]1O[C@H](CO)[C@@H](O)[C@H](O)[C@H]1O[C@@H]1O[C@H](CO)[C@@H](O)[C@H](O)[C@H]1O)C3 [Rebaudioside E],Sweetness potency (relative to sucrose),[1],174
Rebaudioside F,Sweetness potency (relative to sucrose),[1],200
C=C1C[C@@]23CC[C@H]4[C@@](C)(CCC[C@@]4(C)C(=O)O[C@@H]4O[C@H](CO)[C@@H](O)[C@H](O)[C@H]4O)[C@@H]2CC[C@]1(O[C@@H]1O[C@H](CO)[C@@H](O)[C@H](O[C@@H]2O[C@H](CO)[C@@H](O)[C@H](O)[C@H]2O)[C@H]1O[C@@H]1O[C@H](CO)[C@@H](O)[C@H](O)[C@H]1O)C3 [Rebaudioside A],Sweetness potency (relative to sucrose),[1],200-300
C=C1C[C@@]23CC[C@H]4[C@@](C)(CCC[C@@]4(C)C(=O)O)[C@@H]2CC[C@]1(O[C@@H]1O[C@H](CO)[C@@H](O)[C@H](O)[C@H]1O[C@@H]1O[C@H](CO)[C@@H](O)[C@H](O)[C@H]1O)C3 [Steviolbioside],Sweetness potency (relative to sucrose),[1],90
